Reference: PubChem BioAssay AID2060895 (Molecular Pharmacology Branch, DTP, NCI, 2025)

Tested on: PDC 899932-113-R3-J6 complex spheroid viability
Test: Anticancer human tumor 899932-113-R3-J6-PDC patient-derived melanoma cell line growth inhibition [RAS]
Settings: for IC50: curve of first compound; for viability, T/C: stronger effect = lower value; active means viability on the fitted dose curve at most 10% of control; inactive means the rest
Outline: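 Tumour cells grown as complex spheroids with HUVEC endothelial cells and mesenchymal stem cells, treated with RAS pathway inhibitor combinations. Each agent spans half-log steps from near clinical Cmax, or 10 microM where Cmax is unknown.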

[1] = second compound 0.000949 µM, first compound 0.0316 µM
[2] = second compound 0.000949 µM, first compound 0.1 µM
[3] = second compound 0.003 µM, first compound 0.0316 µM
[4] = second compound 0.003 µM, first compound 0.1 µM
[5] = second compound 0.00949 µM, first compound 0.0316 µM
[6] = second compound 0.00949 µM, first compound 0.1 µM
[7] = second compound 0.03 µM, first compound 0.0316 µM
[8] = second compound 0.03 µM, first compound 0.1 µM
[9] = second compound 0.0949 µM, first compound 0.0316 µM
[10] = second compound 0.0949 µM, first compound 0.1 µM
[11] = second compound 0.3 µM, first compound 0.0316 µM
[12] = second compound 0.3 µM, first compound 0.1 µM
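Wherever viability, T/C is given: spheroids exposed to agents for seven days before readout; 100% = DMSO vehicle control wells.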

CC(C)NCC(C(=O)N1CCN(c2ncnc3c2C(C)CC3O)CC1)c1ccc(Cl)cc1 (centres undefined) + CCn1c(-c2cc(N3CCN(C)CC3)cnc2C(C)OC)c2c3cc(ccc31)-c1csc(n1)CC(NC(=O)C1CC1C)C(=O)N1CCCC(N1)C(=O)OCC(C)(C)C2
1180 nM: IC50 (second compound 0.000949 µM)
inactive: viability, T/C [1] 80.5% | viability, T/C [2] 75.4% | viability, T/C (second compound 0.000949 µM, first compound 0.316 µM) 61.7% | viability, T/C (second compound 0.000949 µM, first compound 1 µM) 53.7% | viability, T/C (second compound 0.000949 µM, first compound 3.16 µM) 37.1% | viability, T/C (second compound 0.000949 µM, first compound 10 µM) 14.6% | viability, T/C [3] 34.5% | viability, T/C [4] 32.8% | viability, T/C (second compound 0.003 µM, first compound 0.316 µM) 26.5% | viability, T/C (second compound 0.003 µM, first compound 1 µM) 19.6% | viability, T/C (second compound 0.003 µM, first compound 3.16 µM) 10%
< 31.6 nM: IC50 (second compound 0.003 µM) | IC50 (second compound 0.00949 µM) | IC50 (second compound 0.03 µM) | IC50 (second compound 0.0949 µM) | IC50 (second compound 0.3 µM)
active: viability, T/C (second compound 0.003 µM, first compound 10 µM) 5.05% | viability, T/C [5] 4.77% | viability, T/C [6] 3.31% | viability, T/C (second compound 0.00949 µM, first compound 0.316 µM) 3.85% | viability, T/C (second compound 0.00949 µM, first compound 1 µM) 2.39% | viability, T/C (second compound 0.00949 µM, first compound 3.16 µM) 1.83% | viability, T/C (second compound 0.00949 µM, first compound 10 µM) 1.29% | viability, T/C [7] 3.08% | viability, T/C [8] 2.84% | viability, T/C (second compound 0.03 µM, first compound 0.316 µM) 2.3% | viability, T/C (second compound 0.03 µM, first compound 1 µM) 1.95% | viability, T/C (second compound 0.03 µM, first compound 3.16 µM) 0.99% | viability, T/C (second compound 0.03 µM, first compound 10 µM) 0.77% | viability, T/C [9] 2.64% | viability, T/C [10] 2.19% | viability, T/C (second compound 0.0949 µM, first compound 0.316 µM) 2.43% | viability, T/C (second compound 0.0949 µM, first compound 1 µM) 1.31% | viability, T/C (second compound 0.0949 µM, first compound 3.16 µM) 1.13% | viability, T/C (second compound 0.0949 µM, first compound 10 µM) 0.37% | viability, T/C [11] 1.88% | viability, T/C [12] 2.14% | viability, T/C (second compound 0.3 µM, first compound 0.316 µM) 2.14% | viability, T/C (second compound 0.3 µM, first compound 1 µM) 0.97% | viability, T/C (second compound 0.3 µM, first compound 3.16 µM) 0.62% | viability, T/C (second compound 0.3 µM, first compound 10 µM) 0.36%

CC(C)n1nc(-c2ccc3oc(N)nc3c2)c2c(N)ncnc21 + CCn1c(-c2cc(N3CCN(C)CC3)cnc2C(C)OC)c2c3cc(ccc31)-c1csc(n1)CC(NC(=O)C1CC1C)C(=O)N1CCCC(N1)C(=O)OCC(C)(C)C2
inactive: viability, T/C (second compound 0.000949 µM, first compound 0.000316 µM) 82% | viability, T/C (second compound 0.000949 µM, first compound 0.001 µM) 63.3% | viability, T/C (second compound 0.000949 µM, first compound 0.00316 µM) 73.7% | viability, T/C (second compound 0.000949 µM, first compound 0.01 µM) 65% | viability, T/C [1] 51.4% | viability, T/C [2] 30.5% | viability, T/C (second compound 0.003 µM, first compound 0.000316 µM) 35.6% | viability, T/C (second compound 0.003 µM, first compound 0.001 µM) 40.4% | viability, T/C (second compound 0.003 µM, first compound 0.00316 µM) 37% | viability, T/C (second compound 0.003 µM, first compound 0.01 µM) 34.4% | viability, T/C [3] 29.1% | viability, T/C [4] 18.6%
active: viability, T/C (second compound 0.00949 µM, first compound 0.000316 µM) 4.03% | viability, T/C (second compound 0.00949 µM, first compound 0.001 µM) 3.88% | viability, T/C (second compound 0.00949 µM, first compound 0.00316 µM) 4.42% | viability, T/C (second compound 0.00949 µM, first compound 0.01 µM) 3.62% | viability, T/C [5] 2.93% | viability, T/C [6] 2.22% | viability, T/C (second compound 0.03 µM, first compound 0.000316 µM) 2.41% | viability, T/C (second compound 0.03 µM, first compound 0.001 µM) 2.53% | viability, T/C (second compound 0.03 µM, first compound 0.00316 µM) 2.94% | viability, T/C (second compound 0.03 µM, first compound 0.01 µM) 2.25% | viability, T/C [7] 2.43% | viability, T/C [8] 0.98% | viability, T/C (second compound 0.0949 µM, first compound 0.000316 µM) 2.52% | viability, T/C (second compound 0.0949 µM, first compound 0.001 µM) 2.03% | viability, T/C (second compound 0.0949 µM, first compound 0.00316 µM) 1.78% | viability, T/C (second compound 0.0949 µM, first compound 0.01 µM) 1.41% | viability, T/C [9] 1.07% | viability, T/C [10] 0.65% | viability, T/C (second compound 0.3 µM, first compound 0.000316 µM) 1.86% | viability, T/C (second compound 0.3 µM, first compound 0.001 µM) 1.82% | viability, T/C (second compound 0.3 µM, first compound 0.00316 µM) 2.06% | viability, T/C (second compound 0.3 µM, first compound 0.01 µM) 1.52% | viability, T/C [11] 1.91% | viability, T/C [12] 0.73%
34.8 nM: IC50 (second compound 0.000949 µM)
< 0.316 nM: IC50 (second compound 0.003 µM) | IC50 (second compound 0.00949 µM) | IC50 (second compound 0.03 µM) | IC50 (second compound 0.0949 µM) | IC50 (second compound 0.3 µM)
